Data as given in patent publication US4505914A, “Pharmaceutical for the treatment of sleep disorders” (Merckle GmbH, priority 1982, dated 1985).
Where “and” joins values, the source holds several entries; their conditions need not be identical. Equal entries are not always repeated.

What was measured:
[1] = in words; cited from earlier work
male NMRJ mice [2] = experiment: Sleeping time prolongation under the influence of cinnarizine and flunarizine (ED50); assay type: in vivo, mouse; conditions: for ED50: sleeping time increased by 50%; for Effect on the action of barbiturates: in words
Source text: (§1) A typical representative from the group of barbiturates with long action (phenobarbital), with short to average action (cyclobarbital-calcium) as well as ultra short action (hexobarbital) as well as a combination of two barbiturates (cyclobarbital-calcium+hexobarbital) was applied orally in graduated doses.
Determination of the sleeping time prolongation under the influence of […]

[3] = literature, in words; cited from earlier work
[4] = literature, in words; cited from earlier work; remark: listed apart in the source
male NMR.tau. mice [5] = experiment: Onset of effect (beginning of the excitation stage); assay type: in vivo, mouse
Experimental: (§2) As a criterium for the onset of the effect, the beginning of the excitation stage was measured. For the optimum effect, the beginning of the sleep phase was tested every 10 minutes by the tail and corneal reflex (according to Irvin) according to the following designations:
(§3) Sleeping Time, Onset of Effect and Optium Effect under the influence of […]

male NMR.tau. mice [6] = experiment: Sleep duration, prolongation of sleeping time and ED50 under the influence of cinnarizine (Table 3); assay type: in vivo, mouse
Source text: as §1

tail and corneal reflex = experiment: Optimum effect (tail and corneal reflex according to Irvin); assay type: in vivo, mouse; parameters: key to Optimum Reflex: 0: normal reaction; -1: slightly lessened; -2: clearly lessened; -3: highly lessened; -4: complete lack of reaction
Experimental: as §2
-4 = complete lack of reaction
as §3

male NMRJ mice [7] = experiment: Determination of the oral ED50 of the barbiturates (sleep time); assay type: in vivo, mouse; conditions: for ED50: Mus musculus, 0.5 h, oral, dose required for a 30-minute sleeping period
Source text: as §1
Determination of the oral ED50 of
the barbiturates using 10 male NMR.tau. mice/group

[8] = cinnarizine 0.50 + hexobarbital 710 mg/kg
[9] = cinnarizine 0.75 + hexobarbital 710 mg/kg
[10] = cinnarizine 1.0 + cyclobarbital calcium 239 mg/kg
[11] = cinnarizine 1.0 + cyclobarbital calcium + hexobarbital (40 + 30) 225 mg/kg
[12] = cinnarizine 1.00 + hexobarbital 710 mg/kg
[13] = cinnarizine 2.5 + cyclobarbital calcium 239 mg/kg
[14] = cinnarizine 2.5 + cyclobarbital calcium + hexobarbital (40 + 30) 225 mg/kg
[15] = cinnarizine 5.0 + cyclobarbital calcium 239 mg/kg
[16] = cinnarizine 5.0 + cyclobarbital calcium + hexobarbital (40 + 30) 225 mg/kg
[17] = cyclobarbital calcium 239 mg/kg alone (C)
[18] = hexobarbital 710 mg/kg alone (C)

Fc1ccc(C(c2ccc(F)cc2)N2CCN(C/C=C/c3ccccc3)CC2)cc1 [Flunarizine]
Antihistaminic properties [1]: only weak antihistaminic properties | Sleep Time (male NMRJ mice [2]; flunarizine 0.25 mg/kg + cyclobarbital-Ca 239 mg/kg): 39.54 min | Sleep Time (male NMRJ mice [2]; flunarizine 1.0 mg/kg + cyclobarbital-Ca 239 mg/kg, ***p <0.001): 62.67 min | Sleep Time (male NMRJ mice [2]; flunarizine 1.0 mg/kg + hexobarbital 710 mg/kg): 40.44 min | Sleep Time (male NMRJ mice [2]; flunarizine 2.5 mg/kg + cyclobarbital-Ca 239 mg/kg, ***p <0.001): 75.15 min | Sleep Time (male NMRJ mice [2]; flunarizine 2.5 mg/kg + cyclobarbital-Ca + hexobarbital (40 + 30) 225 mg/kg): 33.45 min | Sleep Time (male NMRJ mice [2]; flunarizine 2.5 mg/kg + hexobarbital 710 mg/kg): 45.17 min | Sleep Time (male NMRJ mice [2]; flunarizine 5.0 mg/kg + hexobarbital 710 mg/kg, ***p <0.001): 94.51 min | Sleep Time (male NMRJ mice [2]; flunarizine 10.0 mg/kg + cyclobarbital-Ca + hexobarbital (40 + 30) 225 mg/kg, **p <0.01): 56.49 min | Sleep Time (male NMRJ mice [2]; flunarizine 15.0 mg/kg + cyclobarbital-Ca + hexobarbital (40 + 30) 225 mg/kg, ***p <0.001): 65.12 min | ED50 (male NMRJ mice [2]; flunarizine with cyclobarbital-Ca 239 mg/kg, range (0.29-0.45)): 0.38 mg/kg | ED50 (male NMRJ mice [2]; flunarizine with cyclobarbital-Ca + hexobarbital (40 + 30) 225 mg/kg, range (6.85-8.30)): 7.52 mg/kg | ED50 (male NMRJ mice [2]; flunarizine with hexobarbital 710 mg/kg, probit analysis): 2.94 mg/kg | Dosage to obtain an ED50 with the combination of both barbiturates (male NMRJ mice [2]; in comparison with the individual barbiturates): higher dosages | Effect on the action of barbiturates (male NMRJ mice [2]): potentiating or enhancing effect | Potency for cyclobarbital-calcium (male NMRJ mice [2]; with cyclobarbital-calcium): highest potency

CCCC(C)(COC(N)=O)COC(N)=O [Meprobamate]
Effect on barbiturates [3]: pontentiating or enhancing effect on barbiturates

OCC(S)CS (stereo not shown) [Dimercaprol (BAL)]
Decomposition of pentobarbital [4]: checks the decomposition of pentobarbital

C(=C\c1ccccc1)/CN1CCN(C(c2ccccc2)c2ccccc2)CC1 [Cinnarizine, 1-benzhydryl-4-trans-cinnamylpiperazine]
Onset p.a. % of control (male NMR.tau. mice [5]; [8]): 86.2% | Onset x (male NMR.tau. mice [5]; [8]): 2.49 min | Onset p.a. % of control (male NMR.tau. mice [5]; [9]): 76.8% | Onset x (male NMR.tau. mice [5]; [9]): 2.22 min | Onset p.a. % of control (male NMR.tau. mice [5]; [10]): 51.3% | Onset x (male NMR.tau. mice [5]; [10]): 2.19 min | Onset p.a. % of control (male NMR.tau. mice [5]; [11]): 94.8% | Onset x (male NMR.tau. mice [5]; [11]): 1.09 min | Onset p.a. % of control (male NMR.tau. mice [5]; [12]): 55.0% | Onset x (male NMR.tau. mice [5]; [12]): 1.59 min | Onset p.a. % of control (male NMR.tau. mice [5]; [13]): 54.1% | Onset x (male NMR.tau. mice [5]; [13]): 2.31 min | Onset p.a. % of control (male NMR.tau. mice [5]; [14]): 102.6% | Onset x (male NMR.tau. mice [5]; [14]): 1.18 min | Onset p.a. % of control (male NMR.tau. mice [5]; [15]): 59.5% | Onset x (male NMR.tau. mice [5]; [15]): 2.54 min | Onset p.a. % of control (male NMR.tau. mice [5]; [16]): 102.6% | Onset x (male NMR.tau. mice [5]; [16]): 1.18 min | Sleep Time (male NMR.tau. mice [6]; [8]): 40.66 min | Sleep Time % of control (male NMR.tau. mice [6]; [8]): 113.4% | Sleep Time (male NMR.tau. mice [6]; [9]): 42.38 min | Sleep Time % of control (male NMR.tau. mice [6]; [9]): 118.2% | Sleep Time (male NMR.tau. mice [6]; [10]): 26.21 min | Sleep Time % of control (male NMR.tau. mice [6]; [10]): 106.4% | Sleep Time (male NMR.tau. mice [6]; [11]): 32.42 min | Sleep Time % of control (male NMR.tau. mice [6]; [11]): 92.6% | Sleep Time (male NMR.tau. mice [6]; [12]): 76.14 min | Sleep Time % of control (male NMR.tau. mice [6]; [12]): 212.3% | Sleep Time (male NMR.tau. mice [6]; [13]): 31.08 min | Sleep Time % of control (male NMR.tau. mice [6]; [13]): 126.1% | Sleep Time (male NMR.tau. mice [6]; [14]): 38.65 min | Sleep Time % of control (male NMR.tau. mice [6]; [14]): 110.4% | Sleep Time (male NMR.tau. mice [6]; [15]): 42.49 min | Sleep Time % of control (male NMR.tau. mice [6]; [15]): 172.4% | Sleep Time (male NMR.tau. mice [6]; [16]): 54.82 min | Sleep Time % of control (male NMR.tau. mice [6]; [16]): 156.6% | Optimum % of control (tail and corneal reflex; [8]): 278.2-336.0% | Optimum Min. (tail and corneal reflex; [8]): 10 to 30 min | Optimum Reflex (tail and corneal reflex; [8]): -3 | Optimum Min. (tail and corneal reflex; [9]): 10 to 20 min | Optimum Reflex (tail and corneal reflex; [9]): -3 | Optimum % of control (tail and corneal reflex; [10]): 166.7% | Optimum Min. (tail and corneal reflex; [10]): 10 min | Optimum Reflex (tail and corneal reflex; [10]): -1 | Optimum % of control (tail and corneal reflex; [11]): 156.3-183.3% | Optimum Min. (tail and corneal reflex; [11]): 10 to 20 min | Optimum Reflex (tail and corneal reflex; [11]): -2 | Optimum % of control (tail and corneal reflex; [12]): 300.8-407.0% | Optimum Min. (tail and corneal reflex; [12]): 10 to 30 min | Optimum Reflex (tail and corneal reflex; [12]): -4 | Optimum % of control (tail and corneal reflex; [13]): 350.0% | Optimum Min. (tail and corneal reflex; [13]): 10 to 30 min | Optimum Reflex (tail and corneal reflex; [13]): -1 | Optimum % of control (tail and corneal reflex; [14]): 138.8-177.5% | Optimum Min. (tail and corneal reflex; [14]): 10 to 20 min | Optimum Reflex (tail and corneal reflex; [14]): -2 | Optimum % of control (tail and corneal reflex; [15]): 350.0% | Optimum Min. (tail and corneal reflex; [15]): 10 min | Optimum Reflex (tail and corneal reflex; [15]): -2 | Optimum % of control (tail and corneal reflex; [16]): 175.0-233.0% | Optimum Min. (tail and corneal reflex; [16]): 10 to 40 min | Sleep Time (male NMRJ mice [2]; cinnarizine 0.5 mg/kg + hexobarbital 710 mg/kg): 35.37 min | Sleep Time (male NMRJ mice [2]; cinnarizine 1.0 mg/kg + cyclobarbital-Ca 239 mg/kg): 24.34 min | Sleep Time (male NMRJ mice [2]; cinnarizine 1.0 mg/kg + cyclobarbital-Ca + hexobarbital (40 + 30) 225 mg/kg): 31.09 min | Sleep Time (male NMRJ mice [2]; cinnarizine 1.0 mg/kg + hexobarbital 710 mg/kg, **p <0.01): 65.58 min | Sleep Time (male NMRJ mice [2]; cinnarizine 1 mg/kg + phenobarbital 256 mg/kg): 25.78 min | Sleep Time (male NMRJ mice [2]; cinnarizine 2.5 mg/kg + cyclobarbital-Ca 239 mg/kg, *p <0.05): 41.43 min | Sleep Time (male NMRJ mice [2]; cinnarizine 2.5 mg/kg + cyclobarbital-Ca + hexobarbital (40 + 30) 225 mg/kg): 37.92 min | Sleep Time (male NMRJ mice [2]; cinnarizine 5.0 mg/kg + cyclobarbital-Ca 239 mg/kg, **p <0.01): 49.99 min | Sleep Time (male NMRJ mice [2]; cinnarizine 5.0 mg/kg + cyclobarbital-Ca + hexobarbital (40 + 30) 225 mg/kg, *p <0.05): 53.22 min | Sleep Time (male NMRJ mice [2]; cinnarizine 5 mg/kg + phenobarbital 256 mg/kg): 32.85 min | Sleep Time (male NMRJ mice [2]; cinnarizine 10 mg/kg + phenobarbital 256 mg/kg, *p <0.05): 43.55 min | Sleep Time (male NMRJ mice [2]; cinnarizine […] + hexobarbital 710 mg/kg, **p <0.01): 43.93 min | Effect on the action of barbiturates (male NMRJ mice [2]): potentiating or enhancing effect

tocopherol
Effect on barbiturates [3]: increases the effect of barbiturates

CCC1(c2ccccc2)C(=O)NC(=O)NC1=O [Phenobarbital]
Sleep Time (male NMRJ mice [7]; 200 mg/kg oral): 4.29 min | Sleep Time (male NMRJ mice [7]; 250 mg/kg oral): 27.52 min | Sleep Time (male NMRJ mice [7]; 300 mg/kg oral): 49.06 min | Sleep Time (male NMRJ mice [7]; 400 mg/kg oral): 49.28 min | ED50 (male NMRJ mice [7]): 256 mg/kg | Sleep Time (male NMRJ mice [2]; phenobarbital 256 mg/kg alone, cinnarizine series): 22.34 min

CCC1(C2=CCCCC2)C(=O)NC(=O)NC1=O [Cyclobarbital-Ca]
Sleep Time (male NMRJ mice [7]; 200 mg/kg oral): 14.01 min | Sleep Time (male NMRJ mice [7]; 250 mg/kg oral): 34.38 min | Sleep Time (male NMRJ mice [7]; 300 mg/kg oral): 90 min | Sleep Time, individual animals (male NMRJ mice [7]; 300 mg/kg oral, footnote 1): 90 min and 60.5 min and 53.3 min | ED50 (male NMRJ mice [7]): 239 mg/kg | Onset p.a. % of control (male NMR.tau. mice [5]; [17]): 100.0% | Onset x (male NMR.tau. mice [5]; [17]): 4.27 min | Effect on onset, in words (male NMR.tau. mice [5]; mouse, in vivo): marked effect | Sleep Time (male NMR.tau. mice [6]; [17]): 24.64 min | Sleep Time % of control (male NMR.tau. mice [6]; [17]): 100.0% | Optimum % of control (tail and corneal reflex; [17]): 100.0% | Optimum Min. (tail and corneal reflex; [17]): 10 min | Sleep Time (male NMRJ mice [2]; cyclobarbital-Ca 239 mg/kg alone, cinnarizine series): 27.45 min | Sleep Time (male NMRJ mice [2]; cyclobarbital-Ca 239 mg/kg alone, flunarizine series): 32.03 min

CN1C(=O)NC(=O)C(C)(C2=CCCCC2)C1=O (stereo not shown) [Hexobarbital]
Sleep Time (male NMRJ mice [7]; 250 mg/kg oral): 3.03 min | Sleep Time (male NMRJ mice [7]; 500 mg/kg oral): 16.52 min | Sleep Time (male NMRJ mice [7]; 750 mg/kg oral): 32.53 min | Sleep Time (male NMRJ mice [7]; 1000 mg/kg oral): 56.08 min | ED50 (male NMRJ mice [7]): 710 mg/kg | Onset p.a. % of control (male NMR.tau. mice [5]; [18]): 100.0% | Onset x (male NMR.tau. mice [5]; [18]): 2.89 min | Sleep Time (male NMR.tau. mice [6]; [18]): 35.86 min | Sleep Time % of control (male NMR.tau. mice [6]; [18]): 100.0% | Optimum % of control (tail and corneal reflex; [18]): 100.0% | Optimum Min. (tail and corneal reflex; [18]): 10 to 20 min | Optimum Reflex (tail and corneal reflex; [18]): -1 | Sleep Time (male NMRJ mice [2]; hexobarbital 710 mg/kg alone, cinnarizine series): 32.74 min | Sleep Time (male NMRJ mice [2]; hexobarbital 710 mg/kg alone, flunarizine series): 38.78 min
